Experimental data published in ChEMBL document CHEMBL1201862, “PubChem BioAssay data set” (2004).
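Assay format: 96-well plates, 48-hour exposure. At the GI50, growth is halved.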 The source made the active and inactive calls. No stated cut-off is given here; in the data, active = GI50 up to about 1.1 µM and inactive = higher.

What was measured:
Experiment in all cases: growth of human tumour cells (NCI), 48 h
NCI-H23 = tested on: NCI-H23
HCC 2998 = tested on: HCC 2998
HOP-62 = tested on: HOP-62
SK-MEL-2 = tested on: SK-MEL-2
Hs-578T = tested on: Hs-578T
NCI/ADR-RES = tested on: NCI/ADR-RES
SK-MEL-28 = tested on: SK-MEL-28
U-251 = tested on: U-251
Malme-3M = tested on: Malme-3M
SF-539 = tested on: SF-539
SK-MEL-5 = tested on: SK-MEL-5
A498 = tested on: A498
M14 = tested on: M14
HT-29 = tested on: HT-29
HCT-15 = tested on: HCT-15
HCT-116 = tested on: HCT-116
OVCAR-3 = tested on: OVCAR-3
UACC-62 = tested on: UACC-62
SW-620 = tested on: SW-620
NCI-H522 = tested on: NCI-H522

SMILES | GI50 (NCI-H23) | GI50 (HCC 2998) | GI50 (HOP-62) | GI50 (SK-MEL-2) | GI50 (Hs-578T) | GI50 (NCI/ADR-RES) | GI50 (SK-MEL-28) | GI50 (U-251) | GI50 (Malme-3M) | GI50 (SF-539) | GI50 (SK-MEL-5) | GI50 (A498) | GI50 (M14) | GI50 (HT-29) | GI50 (HCT-15) | GI50 (HCT-116) | GI50 (OVCAR-3) | GI50 (UACC-62) | GI50 (SW-620) | GI50 (NCI-H522)
CC(=O)C(C(C)=O)[C@@H]1OC(C)(C)O[C@@H]1[C@H]1COC(C)(C)O1 | 34 µM (inactive) | > 100 µM (inactive) | 45.9 µM (inactive) | 28.5 µM (inactive) | 28.4 µM (inactive) | 55.6 µM (inactive) | 60.3 µM (inactive) | 42.8 µM (inactive) | 22.5 µM (inactive) | > 100 µM (inactive) | 47.8 µM (inactive) | 93.3 µM (inactive) | 47.4 µM (inactive) | 32.8 µM (inactive) | 41.5 µM | 30.9 µM (inactive) | 62.8 µM (inactive) | > 100 µM (inactive) | 36.6 µM (inactive) | 26.9 µM (inactive)
Cc1cc(C)c(-c2no/c(=N\S(=O)(=O)c3ccc(Cl)cc3)o2)c(C)c1 | > 100 µM (inactive) | > 100 µM (inactive) | > 100 µM (inactive) | 34 µM (inactive) | > 100 µM (inactive) | 87.3 µM (inactive) | > 100 µM (inactive) | > 100 µM (inactive) | 75 µM (inactive) | > 100 µM (inactive) | 23.1 µM (inactive) | > 100 µM (inactive) | > 100 µM (inactive) | > 100 µM (inactive) | > 100 µM | 51.1 µM (inactive) | > 100 µM (inactive) | > 100 µM (inactive) | > 100 µM (inactive) | 28.6 µM (inactive)
CCCCCCCCCC[C@H](O)[C@H]1CC[C@H]([C@H]2CC[C@H]([C@H](O)CC[C@H](O)CCCCCCC[C@@H](O)CC3=C[C@H](C)OC3=O)O2)O1 | 1.82 µM (inactive) | > 100 µM (inactive) | > 10 µM (inactive) | 78 µM (inactive) | > 10 µM (inactive) | 1.61 µM (inactive) | > 10 µM (inactive) | > 10 µM (inactive) | 25.8 µM (inactive) | 24 µM (inactive) | 1.41 µM (inactive) | 1.75 µM (inactive) | 46.9 µM (inactive) | > 10 µM (inactive) | 43.9 µM | < 0.01 µM (active) | 18.3 µM (inactive) | > 10 µM (inactive) | > 10 µM (inactive) | 10.7 µM (inactive)
COC(=O)CCN1CCN(CCO)CC1C (stereo not given) | > 10 µM (inactive) | > 10 µM (inactive) | > 10 µM (inactive) | > 10 µM (inactive) | > 10 µM (inactive) | > 10 µM (inactive) | > 10 µM (inactive) | > 10 µM (inactive) | > 10 µM (inactive) | > 10 µM (inactive) | > 10 µM (inactive) | > 10 µM (inactive) | > 10 µM (inactive) | > 10 µM (inactive) | > 10 µM | > 10 µM (inactive) | > 10 µM (inactive) | > 10 µM (inactive) | > 10 µM (inactive) | > 10 µM (inactive)
COc1cc(/C=C2\CC/C(=C\c3cc(OC)c(O)c(OC)c3)C2=O)cc(OC)c1O | 1.98 µM (inactive) | 1.67 µM (inactive) | 3.13 µM (inactive) | 0.667 µM (active) | 2.09 µM (inactive) | 2.79 µM (inactive) | 1.05 µM (active) | 2.06 µM (inactive) | 0.345 µM (active) | 3.61 µM (inactive) | 1.95 µM (inactive) | 1.01 µM (active) | 2.19 µM (inactive) | 10.4 µM (inactive) | 1.4 µM | 1.83 µM (inactive) | 2.2 µM (inactive) | 1.35 µM (inactive) | 1.88 µM (inactive) | 0.798 µM (active)
COc1ccc2nc3cc([N+](=O)[O-])ccc3c(NNc3ccc(Cl)cc3)c2c1 | 45.2 µM (inactive) | 8.39 µM (inactive) | 21.8 µM (inactive) | 18.7 µM (inactive) | 29.9 µM (inactive) | 32.6 µM (inactive) | 70 µM (inactive) | 21.7 µM (inactive) | 43.2 µM (inactive) | 37.8 µM (inactive) | 14.7 µM (inactive) | 0.073 µM (active) | 34.7 µM (inactive) | 15.2 µM (inactive) | 45.5 µM | 5.07 µM (inactive) | 2.39 µM (inactive) | 2.44 µM (inactive) | 12.1 µM (inactive) | 22.6 µM (inactive)
COc1ccc(C2C3=C(COC3=O)OC(C)(C)Oc3cc4c(cc32)OCO4)cc1 (stereo not given) | 34.4 µM (inactive) | 40.5 µM (inactive) | 23.6 µM (inactive) | 37.8 µM (inactive) | 27.4 µM (inactive) | 18.5 µM (inactive) | 43.1 µM (inactive) | 31.8 µM (inactive) | 17.7 µM (inactive) | 24.2 µM (inactive) | 20.4 µM (inactive) | 22.8 µM (inactive) | 24.2 µM (inactive) | 24.4 µM (inactive) | 23.7 µM | 25.4 µM (inactive) | 36.6 µM (inactive) | 25.5 µM (inactive) | 21.8 µM (inactive) | 17.4 µM (inactive)
COc1ccc2oc3c(C)cc4c(OC)nnc(OC)c4c3c2c1 | 17.9 µM (inactive) | 16.7 µM (inactive) | 17.7 µM (inactive) | 82.4 µM (inactive) | 31 µM (inactive) | 18.4 µM (inactive) | 68.2 µM (inactive) | 1.98 µM (inactive) | 9.95 µM (inactive) | 7.89 µM (inactive) | 6.15 µM (inactive) | 17.4 µM (inactive) | 16.5 µM (inactive) | 4.57 µM (inactive) | 7.83 µM | 2.17 µM (inactive) | > 100 µM (inactive) | 9.31 µM (inactive) | 7.57 µM (inactive) | 6.76 µM (inactive)
O=C(N/N=C\c1ccc(Cl)cc1)Nc1cccc2ccccc12 | 9.71 µM (inactive) | 2.4 µM (inactive) | 2.01 µM (inactive) | 21.5 µM (inactive) | 2.67 µM (inactive) | > 25 µM (inactive) | 22.5 µM (inactive) | 2.96 µM (inactive) | 4.24 µM (inactive) | 5.41 µM (inactive) | 4.45 µM (inactive) | 2.67 µM (inactive) | 7.16 µM (inactive) | 3.21 µM (inactive) | 3.36 µM | 3.04 µM (inactive) | 1.54 µM (inactive) | 9.48 µM (inactive) | 3.41 µM (inactive) | 4.83 µM (inactive)
COc1ccc(/C=C/C(=O)NCC(NC(=O)/C=C/c2ccc(OC)c(OC)c2)C(=O)O)cc1OC (stereo not given) | > 100 µM (inactive) | > 100 µM (inactive) | > 100 µM (inactive) | > 100 µM (inactive) | > 100 µM (inactive) | 0.0169 µM (active) | > 100 µM (inactive) | > 100 µM (inactive) | > 100 µM (inactive) | > 100 µM (inactive) | > 100 µM (inactive) | > 100 µM (inactive) | > 100 µM (inactive) | > 100 µM (inactive) | < 0.01 µM | > 100 µM (inactive) | > 100 µM (inactive) | > 100 µM (inactive) | > 100 µM (inactive) | > 100 µM (inactive)
COc1cccc(N2C(=O)C3c4[nH]c5ccccc5c4C4CCCC4C3C2=O)c1 (stereo not given) | > 10 µM (inactive) | > 10 µM (inactive) | 2.52 µM (inactive) | > 10 µM (inactive) | 3.61 µM (inactive) | 3.8 µM (inactive) | > 10 µM (inactive) | 4.06 µM (inactive) | 2.78 µM (inactive) | 7 µM (inactive) | > 10 µM (inactive) | 2.17 µM (inactive) | 3.06 µM (inactive) | 5.69 µM (inactive) | > 10 µM | 2.87 µM (inactive) | 2.36 µM (inactive) | > 10 µM (inactive) | 7.98 µM (inactive) | > 10 µM (inactive)
C/C(=N/NC(=S)N1CCCCC1)c1ccccc1O | > 31.6 µM (inactive) | > 31.6 µM (inactive) | > 100 µM (inactive) | > 31.6 µM (inactive) | 20.1 µM (inactive) | 28.2 µM (inactive) | > 31.6 µM (inactive) | > 31.6 µM (inactive) | > 31.6 µM (inactive) | > 100 µM (inactive) | 60.8 µM (inactive) | > 100 µM (inactive) | > 31.6 µM (inactive) | 23.1 µM (inactive) | > 31.6 µM | > 10 µM (inactive) | 16.4 µM (inactive) | > 31.6 µM (inactive) | > 31.6 µM (inactive) | 26.5 µM (inactive)
COc1cc(/C=C2\C[C@H]3[C@@H]4CC=C5C[C@@H](N6CCCC6)CC[C@]5(C)[C@H]4CC[C@]3(C)[C@H]2O)cc(OC)c1OC | 14.9 µM (inactive) | 7.83 µM (inactive) | 16.1 µM (inactive) | 19.5 µM (inactive) | 6.11 µM (inactive) | 15.8 µM (inactive) | 17.4 µM (inactive) | 15.4 µM (inactive) | 11.7 µM (inactive) | 16.3 µM (inactive) | 14.5 µM (inactive) | 16.6 µM (inactive) | 2.2 µM (inactive) | 3.38 µM (inactive) | 11.7 µM | 13.2 µM (inactive) | 15.5 µM (inactive) | 18.6 µM (inactive) | 8.04 µM (inactive) | 13.4 µM (inactive)
CC1=Nc2c(O)nc(S)nc2NC(c2c(Cl)cccc2Cl)C1 (stereo not given) | 2.65 µM (inactive) | 10.9 µM (inactive) | 6.84 µM (inactive) | 18 µM (inactive) | 0.589 µM (active) | 0.193 µM (active) | 2.73 µM (inactive) | 0.993 µM (active) | 6.11 µM (inactive) | 1.75 µM (inactive) | 3.58 µM (inactive) | 1.67 µM (inactive) | 2.32 µM (inactive) | 0.998 µM (active) | 3.05 µM | 0.76 µM (active) | 1.58 µM (inactive) | 1.78 µM (inactive) | 0.971 µM (active) | 1.98 µM (inactive)
